{"source": "patent US20220160739A1", "about": "“METHODS FOR TREATING SUBJECTS WITH CHRONIC KIDNEY DISEASE” (Janssen Pharmaceutica NV, priority 2019, published 2022)", "system": "patients with type 2 diabetes mellitus (T2DM), Stage 2 or 3 chronic kidney disease (CKD) and macroalbuminuria", "assay": "Randomized, double-blind, placebo-controlled study of canagliflozin: safety and tolerability (adverse events)", "type": "in vivo", "source_text": "This was a randomized, double-blind, event-driven, placebo-controlled, parallel-group, 2-arm, multicenter study to evaluate the effects of canagliflozin relative to placebo on progression to doubling of serum creatinine, end-stage kidney disease (ESKD), renal or cardiovascular (CV) death in patients with type 2 diabetes mellitus (T2DM), Stage 2 or 3 chronic kidney disease (CKD) and macroalbuminuria, who were receiving standard of care including a maximum tolerated labeled daily dose of an angiotensin-converting enzyme inhibitor (ACEi) or angiotensin receptor blocker (ARB). […] The safety objective was to assess the overall safety and tolerability of canagliflozin. […]\nTreatment-emergent safety analyses and summaries were presented using the On-Treatment analysis set (i.e., all treated subjects through 30 days after last dose), whereas analyses of amputation, fracture, and malignancy were performed using the On-Study analysis set (i.e., all treated subjects through end of study).\nSafety analyses were performed using either the On-Treatment analysis set (treated subjects up to 30 days of last dose) or the On-Study analysis set (treated subjects through the end of study).", "key": {"[1]": {"conditions": "denominators restricted to females"}, "[2]": {"conditions": "renal related AE by preferred term"}}}
{"smiles": "Cc1ccc(C2OC(CO)C(O)C(O)C2O)cc1Cc1ccc(-c2ccc(F)cc2)s1", "note": "(centres unmarked) [Canagliflozin]", "values": [{"measurement": "Atraumatic lower limb amputation: number of events", "setting": "On-Study", "value": 87}, {"measurement": "Adjudicated fracture: subjects with any event (%)", "setting": "On-Study, N = 2200", "value": "(3.0) %"}, {"measurement": "Atraumatic lower limb amputation: subjects with any event (%)", "setting": "On-Study, N = 2200", "value": "(3.2) %"}, {"measurement": "Adverse Events Leading to Discontinuation N (%)", "setting": "On-Treatment, N = 2200", "value": "267 (12.1)"}, {"measurement": "Adverse Events Related to Study Drug N (%)", "setting": "On-Treatment, N = 2200", "value": "469 (21.3)"}, {"measurement": "Adverse Events Related to Study Drug and Leading to Discontinuation N (%)", "setting": "On-Treatment, N = 2200", "value": "75 (3.4)"}, {"measurement": "Any Adverse Events N (%)", "setting": "On-Treatment, N = 2200", "value": "1784 (81.1)"}, {"measurement": "Death (fatal adverse event) N (%)", "setting": "On-Treatment, N = 2200", "value": "109 (5.0)"}, {"measurement": "Renal related adverse events: total subjects with the AEs (%)", "setting": "On-Treatment, N = 2200", "value": "(13.2) %"}, {"measurement": "Serious Adverse Events Leading to Discontinuation N (%)", "setting": "On-Treatment, N = 2200", "value": "134 (6.1)"}, {"measurement": "Serious Adverse Events N (%)", "setting": "On-Treatment, N = 2200", "value": "737 (33.5)"}, {"measurement": "Serious Adverse Events Related to Study Drug N (%)", "setting": "On-Treatment, N = 2200", "value": "62 (2.8)"}, {"measurement": "Serious Adverse Events Related to Study Drug and Leading to Discontinuation N (%)", "setting": "On-Treatment, N = 2200", "value": "16 (0.7)"}, {"measurement": "Renal related adverse events: incidence rate", "setting": "Table 8", "value": 57.12, "unit": "per 1000 person-years"}, {"measurement": "Overall incidence rate of neoplasms", "setting": "between the treatment groups", "value": "low and balanced between the treatment groups"}, {"measurement": "Adjudicated diabetic ketoacidosis (DKA) IRD", "setting": "canagliflozin compared to placebo", "value": "1.73 per 1,000 subject-years"}, {"measurement": "Adjudicated RCC incidence rate", "setting": "canagliflozin group", "value": 0.17, "unit": "per 1000 patient-years"}, {"measurement": "Adjudicated renal cell carcinoma (RCC): subjects", "setting": "canagliflozin group", "value": 1, "unit": "subject"}, {"measurement": "Adjudicated renal cell carcinoma (RCC): subjects (%)", "setting": "canagliflozin group", "value": "< 0.1", "unit": "%"}, {"measurement": "Adverse event cited as reason for treatment discontinuation", "setting": "canagliflozin group", "value": 12, "unit": "%"}, {"measurement": "Female breast cancer incidence rate", "setting": "canagliflozin group", "value": 4.08, "unit": "per 1000 patient-years"}, {"measurement": "Hyperkalemia adverse events incidence rate", "setting": "canagliflozin group", "value": "29.74 per 1,000 subject-years"}, {"measurement": "Renal-related adverse events: incidence rate", "setting": "canagliflozin group", "value": "57.12 per 1,000 subject-years"}, {"measurement": "Volume depletion adverse events incidence rate", "setting": "canagliflozin group", "value": "28.36 per 1,000 subject-years"}, {"measurement": "Malignancy (Breast) IRD, Canagliflozin vs. Placebo", "setting": "[1]", "value": "2.49 /1000 subject years"}, {"measurement": "Malignancy (Breast) n (%)", "setting": "[1]", "value": "8 (1.1)"}, {"measurement": "Malignancy (Breast) rate", "setting": "[1]", "value": "4.08 /1000 subject years"}, {"measurement": "Adverse Events Leading to Discontinuation rate", "setting": "exposure adjusted", "value": "52.59 /1000 pt-yrs"}, {"measurement": "Adverse Events Related to Study Drug and Leading to Discontinuation rate", "setting": "exposure adjusted", "value": "14.77 /1000 pt-yrs"}, {"measurement": "Adverse Events Related to Study Drug rate", "setting": "exposure adjusted", "value": "92.38 /1000 pt-yrs"}, {"measurement": "Death (fatal adverse event) rate", "setting": "exposure adjusted", "value": "21.47 /1000 pt-yrs"}, {"measurement": "Serious Adverse Events Leading to Discontinuation rate", "setting": "exposure adjusted", "value": "26.39 /1000 pt-yrs"}, {"measurement": "Serious Adverse Events Related to Study Drug and Leading to Discontinuation rate", "setting": "exposure adjusted", "value": "3.15 /1000 pt-yrs"}, {"measurement": "Serious Adverse Events Related to Study Drug rate", "setting": "exposure adjusted", "value": "12.21 /1000 pt-yrs"}, {"measurement": "Serious Adverse Events rate", "setting": "exposure adjusted", "value": "145.17 /1000 pt-yrs"}, {"measurement": "Any Adverse Events rate", "setting": "exposure adjusted, On-Treatment", "value": "351.40 /1000 pt-yrs"}, {"measurement": "Reports of pheochromocytoma or testicular cell cancer", "setting": "in the study", "value": "no reports"}, {"measurement": "Malignancy (Bladder) IRD, Canagliflozin vs. Placebo", "setting": "post-randomization", "value": "0.16 /1000 subject years"}, {"measurement": "Malignancy (Bladder) rate", "setting": "post-randomization", "value": "1.73 /1000 subject years"}, {"measurement": "Malignancy (Bladder) n (%)", "setting": "post-randomization, N = 2200", "value": "10 (0.5)"}, {"measurement": "Acute kidney injury (%)", "setting": "[2]", "value": "(3.9) %"}, {"measurement": "Acute kidney injury n", "setting": "[2]", "value": 86}, {"measurement": "Anuria (%)", "setting": "[2]", "value": "(<0.1) %"}, {"measurement": "Anuria n", "setting": "[2]", "value": 1}, {"measurement": "Azotemia n", "setting": "[2]", "value": 0}, {"measurement": "Blood Creatinine increased (%)", "setting": "[2]", "value": "(6.5) %"}, {"measurement": "Blood Creatinine increased n", "setting": "[2]", "value": 144}, {"measurement": "Blood urea increased (%)", "setting": "[2]", "value": "(1.0) %"}, {"measurement": "Blood urea increased n", "setting": "[2]", "value": 21}, {"measurement": "Glomerular filtration rate decreased (%)", "setting": "[2]", "value": "(3.1) %"}, {"measurement": "Glomerular filtration rate decreased n", "setting": "[2]", "value": 68}, {"measurement": "Nephropathy toxic n", "setting": "[2]", "value": 0}, {"measurement": "Renal failure (%)", "setting": "[2]", "value": "(0.5) %"}, {"measurement": "Renal failure n", "setting": "[2]", "value": 10}, {"measurement": "Renal impairment (%)", "setting": "[2]", "value": "(2.3) %"}, {"measurement": "Renal impairment n", "setting": "[2]", "value": 50}]}
